pIC50: −log10 of the molar value. Where two headings read alike, the source gives them in different places.
Biological target: T1, angiotensin II receptor (Oryctolagus cuniculus, UniProt P34976)
T1 construct: The aorta was cut into 3~4 mm to form ring samples; from tissue; host or cells: isolated aorta rings of New Zealand White rabbits
T1 sequence (P34976 1-359): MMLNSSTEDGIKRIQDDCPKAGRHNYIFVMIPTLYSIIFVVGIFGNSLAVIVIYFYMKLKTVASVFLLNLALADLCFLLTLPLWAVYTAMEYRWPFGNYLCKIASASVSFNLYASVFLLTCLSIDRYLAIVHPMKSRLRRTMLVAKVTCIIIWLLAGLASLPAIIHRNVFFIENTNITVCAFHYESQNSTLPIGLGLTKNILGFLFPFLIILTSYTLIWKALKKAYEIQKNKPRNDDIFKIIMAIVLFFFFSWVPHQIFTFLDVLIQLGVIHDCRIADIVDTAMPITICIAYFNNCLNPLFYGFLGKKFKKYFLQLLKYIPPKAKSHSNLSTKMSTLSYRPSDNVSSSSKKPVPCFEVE
Assay: inhibition of angiotensin II induced contraction of isolated rabbit aorta rings
Format: cell-based, New Zealand White rabbit
Details: test compound incubated 20 minutes
Protocol: The antagonistic activity of the representative compounds of the invention was evaluated using the methodology describe below.
From New Zealand White rabbits (male or female, 2~2.5 kg), aorta was isolated, and fat and connected tissue were removed therefrom. The aorta was cut into 3~4 mm to form ring samples. The aorta sample was suspended in 20 ml of organ bath (37° C.) containing modified Krebs-Henseleit solution saturated with 95% O2 /5% CO2 (pH 7.4).
The aorta preparation was exposed consecutively to 2 g of tensile strength for 90 minutes intermittently washing the sample with 30 minutes interval and then to 30 mM of KCl to observe contraction response. After washing more than three times, the aorta preparation was again allowed to contract three times for stabilization by adding Angiotensin II ([…]) thereto with 30 minutes interval. The third contraction response to Angiotensin II was considered as control.
10 minutes after the third contraction, the test compound was administered to the aorta preparation, which was incubated for 20 minutes.
Comparing angiotensin II contraction curve obtained from the above inhibition test with that of the control, IC50 (concentration being required to inhibit angiotensin II induced contraction by 50%) was determined for each test compound(Table 1).

[1] = 37° C., pH 7.4, read-out: IC50 (concentration being required to inhibit angiotensin II induced contraction by 50%)

Row | pIC50 [1] | pIC50 (value given in M, read-out: IC50 (concentration being required to inhibit angiotensin II induced contraction by 50%)) | SMILES
1 | 8.44 |  | CCCCc1nc(C)c(CC(=O)N2CCCC(C(=O)N(CC)CC)C2)c(=O)n1Cc1ccc(-c2ccccc2-c2nn[nH]n2)cc1 (stereo not shown) [Compound 55, 2-n-butyl-5-(3'-diethylaminocarbonylpiperidinocarbonylmethyl)-6-methyl-3-[[2'-(1H-tetrazol-5-yl)biphenyl-4-yl]methyl]-pyrimidin-4-(3H)-one]
2 | 8.48 |  | CCCCc1nc(C)c(CC(=O)N2CCCCCC2)c(=O)n1Cc1ccc(-c2ccccc2-c2nn[nH]n2)cc1 [Compound 56, 2-n-butyl-5-hexamethyleneiminocarbonylmethyl-6-methyl-3-[[2'-(1H-tetrazol-5-yl)biphenyl-4-yl]methyl]-pyrimidin-4-(3H)-one]
3 | 8.44 |  | CCCCc1nc(C)c(CC(=O)N2CCCCCCC2)c(=O)n1Cc1ccc(-c2ccccc2-c2nn[nH]n2)cc1 [Compound 57, 2-n-butyl-5-heptamethyleneiminocarbonylmethyl-6-methyl-3-[[2'-(1H-tetrazol-5-yl)biphenyl-4-yl]methyl]-pyrimidin-4-(3H)-one]
4 | 8.23 |  | CCCCc1nc(C)c(CCC(=O)N2CCCC2)c(=O)n1Cc1ccc(-c2ccccc2-c2nn[nH]n2)cc1 [Compound 58, 2-n-butyl-5-(2'-pyrrolidinocarbonylethyl)-6-methyl-3-[[2'-(1H-tetrazol-5-yl)biphenyl-4-yl]methyl]-pyrimidin-4-(3H)-one]
5 | 8.47 |  | CCCCc1nc(C)c(CCC(=O)N2CCC[C@H]2C(=O)OC)c(=O)n1Cc1ccc(-c2ccccc2-c2nn[nH]n2)cc1 [Compound 59, 2-n-butyl-5-[2'-((S)-2"-methoxycarbonylpyrrolidino)-carbonylethyl]-6-methyl-3-[[2'-(1H-tetrazol-5-yl)biphenyl-4-yl]-methyl]-pyrimidin-4-(3H)-one]
6 | 8.54 |  | CCCCc1nc(C)c(CCC(=O)N2CCC[C@H]2C(N)=O)c(=O)n1Cc1ccc(-c2ccccc2-c2nn[nH]n2)cc1 [Compound 60, 2-n-butyl-5-[2'-((S)-2"-aminocarbonylpyrrolidino)carbonylethyl]-6-methyl-3-[[2'-(1H-tetrazol-5-yl)biphenyl-4-yl]methyl]-pyrimidin-4-(3H)-one]
7 | 8.11 |  | CCCCc1nc(C)c(CCC(=O)N2CC=CC2)c(=O)n1Cc1ccc(-c2ccccc2-c2nn[nH]n2)cc1 [Compound 61, 2-n-butyl-5-[2'-(3"-pyrrolino)carbonylethyl]-6-methyl-3-[[2'-(1H-tetrazol-5-yl)biphenyl-4-yl]methyl]-pyrimidin-4-(3H)-one]
8 | 8.02 |  | CCCCc1nc(C)c(CCC(=O)N2CCCCC2)c(=O)n1Cc1ccc(-c2ccccc2-c2nn[nH]n2)cc1 [Compound 62, 2-n-butyl-5-[2'-piperidinocarbonylethyl]-6-methyl-3-[[2'-(1H-tetrazol-5-yl)biphenyl-4-yl]methyl]-pyrimidin-4-(3H)-one]
9 | 6.52 |  | CCCCc1nc(C)c(CCC(=O)N2CCC(Cc3ccccc3)CC2)c(=O)n1Cc1ccc(-c2ccccc2-c2nn[nH]n2)cc1 [Compound 63, 2-n-butyl-5-[2'-(4"-benzylpiperidino)carbonylethyl]-6-methyl-3-[[2'-(1H -tetrazol-5-yl)biphenyl-4-yl]methyl]-pyrimidin-4-(3H)-one]
10 |  | < 5.00 | CCCCc1nc(C)c(CCC(=O)N2CCC(C)CC2)c(=O)n1Cc1ccc(-c2ccccc2-c2nn[nH]n2)cc1 [Compound 64, 2-n-butyl-5-[2'-(4"-methylpiperidino)carbonylethyl]-6-methyl-3-[[2'-(1H-tetrazol-5-yl)biphenyl-4-yl]methyl]-pyrimidin-4-(3H)-one]
11 | 8.12 |  | CCCCc1nc(C)c(CCC(=O)N2CCCC(C)(C)C2)c(=O)n1Cc1ccc(-c2ccccc2-c2nn[nH]n2)cc1 [Compound 65, 2-n-butyl-5-[2'-(3",3"-dimethylpiperidino)carbonylethyl]-6-methyl-3-[[2'-(1H-tetrazol-5-yl)biphenyl-4-yl]methyl]-pyrimidin-4-(3H)-one]
12 | 8.01 |  | CCCCc1nc(C)c(CCC(=O)N2CCC(C(=O)OCC)CC2)c(=O)n1Cc1ccc(-c2ccccc2-c2nn[nH]n2)cc1 [Compound 66, 2-n-butyl-5-[2'-(4"-ethoxycarbonylpiperidino)carbonylethyl]-6-methyl-3-[[2'-(1H-tetrazol-5-yl)biphenyl-4-yl]methyl]-pyrimidin-4-(3H)-one]
13 | 7.52 |  | CCCCc1nc(C)c(CCC(=O)N2CCCCC2C(=O)OCC)c(=O)n1Cc1ccc(-c2ccccc2-c2nn[nH]n2)cc1 (stereo not shown) [Compound 67, 2-n-butyl-5-[2'-(2"-ethoxycarbonylpiperidino)carbonylethyl]-6-methyl-3-[[2'-(1H-tetrazol-5-yl)biphenyl-4-yl]methyl]-pyrimidin-4-(3H)-one]
14 | 8.64 |  | CCCCc1nc(C)c(CCC(=O)N2CCC(C(N)=O)CC2)c(=O)n1Cc1ccc(-c2ccccc2-c2nn[nH]n2)cc1 [Compound 68, 2-n-butyl-5-[2'-(4"-aminocarbonylpiperidino)carbonylethyl]-6-methyl-3-[[2'-(1H-tetrazol-5-yl)biphenyl-4-yl]methyl]-pyrimidin-4-(3H)-one]
15 | 7.97 |  | CCCCc1nc(C)c(CCC(=O)N2CCCC(C(=O)N(CC)CC)C2)c(=O)n1Cc1ccc(-c2ccccc2-c2nn[nH]n2)cc1 (stereo not shown) [Compound 69, 2-n-butyl-5-[2'-(3"-diethylaminocarbonylpiperidino)carbonylethyl]-6-methyl-3-[[2'-(1H-tetrazol-5-yl)biphenyl-4-yl]methyl]-pyrimidin-4-(3H)-one]
16 | 7.94 |  | CCCCc1nc(C)c(CCC(=O)N2CCCCCC2)c(=O)n1Cc1ccc(-c2ccccc2-c2nn[nH]n2)cc1 [Compound 70, 2-n-butyl-5-(2'-hexamethyleneiminocarbonylethyl)-6-methyl-3-[[2'-(1H-tetrazol-5-yl)biphenyl-4-yl]methyl]-pyrimidin-4-(3H)-one]
17 | 7.77 |  | CCCCc1nc(C)c(CCC(=O)N2CCCCCCC2)c(=O)n1Cc1ccc(-c2ccccc2-c2nn[nH]n2)cc1 [Compound 71, 2-n-butyl-5-(2'-heptamethyleneiminocarbonylethyl)-6-methyl-3-[[2'-(1 H-tetrazol-5-yl)biphenyl-4-yl]methyl]-pyrimidin-4-(3H)-one]
18 | 8.04 |  | CCCCc1nc(C)c(CC(=O)N2CCSC2)c(=O)n1Cc1ccc(-c2ccccc2-c2nn[nH]n2)cc1 [Compound 72, 2-n-butyl-5-thiazolidinocarbonylmethyl-6-methyl-3-[[2'-(1H-tetrazol-5-yl)biphenyl-4-yl]methyl]-pyrimidin-4-(3H)-one]
19 | 8.76 |  | CCCCc1nc(C)c(CC(=O)N2CCOCC2)c(=O)n1Cc1ccc(-c2ccccc2-c2nn[nH]n2)cc1 [Compound 73, 2-n-butyl-5-morpholinocarbonylmethyl-6-methyl-3-[[2'-(1H-tetrazol-5-yl)biphenyl-4-yl]methyl]-pyrimidin-4-(3H)-one]
20 | 8.99 |  | CCCCc1nc(C)c(CC(=O)N2C(C)COCC2C)c(=O)n1Cc1ccc(-c2ccccc2-c2nn[nH]n2)cc1 (stereo not shown) [Compound 74, 2-n-butyl-5-(3',5'-dimethylmorpholinocarbonylmethyl)-6-methyl-3-[[2'-(1H-tetrazol-5-yl)biphenyl-4-yl]methyl]-pyrimidin-4-(3H)-one]
21 | 8.56 |  | CCCCc1nc(C)c(CC(=O)N2CCSCC2)c(=O)n1Cc1ccc(-c2ccccc2-c2nn[nH]n2)cc1 [Compound 75, 2-n-butyl-5-thiomorpholinocarbonylmethyl-6-methyl-3-[[2'-(1H-tetrazol-5-yl)biphenyl-4-yl]methyl]-pyrimidin-4-(3H)-one]
22 | 8.66 |  | CCCCc1nc(C)c(CC(=O)N2CCN(C(C)=O)CC2)c(=O)n1Cc1ccc(-c2ccccc2-c2nn[nH]n2)cc1 [Compound 77, 2-n-butyl-5-(4'-acetylpiperazinocarbonylmethyl)-6-methyl-3-[[2'-(1H-tetrazol-5-yl)biphenyl-4-yl]methyl]-pyrimidin-4-(3H)-one]
23 | 8.28 |  | CCCCc1nc(C)c(CCC(=O)N2CCOCC2)c(=O)n1Cc1ccc(-c2ccccc2-c2nn[nH]n2)cc1 [Compound 78, 2-n-butyl-5-(2'-morpholinocarbonylethyl)-6-methyl-3-[[2'-(1H-tetrazol-5-yl)biphenyl-4-yl]methyl]-pyrimidin-4-(3H)-one]
24 | 7.88 |  | CCCCc1nc(C)c(CCC(=O)N2C(C)COCC2C)c(=O)n1Cc1ccc(-c2ccccc2-c2nn[nH]n2)cc1 (stereo not shown) [Compound 79, 2-n-butyl-5-[2'-(3",5"-dimethylmorpholino)carbonylethyl]-6-methyl-3-[[2'-(1H-tetrazol-5-yl)biphenyl-4-yl]methyl]-pyrimidin-4-(3H)-one]

Row | SMILES | pIC50 [1] | pIC50 (value given in M, read-out: IC50 (concentration being required to inhibit angiotensin II induced contraction by 50%))
25 | CCCCc1nc(C)c(CC(=O)N2CCN(C)CC2)c(=O)n1Cc1ccc(-c2ccccc2-c2nn[nH]n2)cc1 [Compound 76, 2-n-butyl-5-(4'-methylpiperazinocarbonylmethyl)-6-methyl-3-[[2'-(1H-tetrazol-5-yl)biphenyl-4-yl]methyl]-pyrimidin-4-(3H)-one] | 8.44 | 

Reference: patent US5869476A, “Pyrimidinone derivatives” (Boryung Pharmaceutical Co., Ltd., priority 1994, dated 1999)
